# In patent publication US20260284046A1, “PYRIDAZINE COMPOUNDS FOR TREATMENT OF FIBROTIC DISEASES” (GEORG-AUGUST-UNIVERSITAET GOETTINGEN STIFTUNG OEFFENTLICHEN …, priority 2023, published 2026):
# Legend:
# [1] = test system: human dermal fibroblasts HRO159N; assay: ELISA of secreted pro-collagen I alpha 1, human dermal fibroblasts HRO159N; type: cell-based; details: 48 h, 250 μg
# Method: (§1) Compounds reconstitution and stock solution: Prior to treatment, DMSO was diluted in PMS until 0.1% DMSO was made. Each compound was solved in 0.1% DMSO (3: 2.5 mg/mL, 1: 2.5 mg/mL, 10: 1 mg/mL, 5: 1 mg/mL, 7: 0.6 mg/mL, 16: 1 mg/mL 17: 1 mg/mL, 44: 0.6 mg/mL, 36: 1 mg/mL.
# (§2) Next the different stock solution with 150 μg and 250 μg of each compound per 1 ml culture solution was made by adding the 0.1% DMSO compound solution in the right amount to culture solution (DMEM with 10% FCS and 1% penicillin-streptomycin).
# Three different cell lines were used for the experiments. GM637 is an immortalized cell line originated from human skin fibroblasts, bought in 2001, UKE1 and […] are cell lines originated from human dermal fibroblasts (dog ear) nurtured from patients, between 60 and 80 years old being completely anonymized at the clinic for dermatology, Rostock.
# (§3) The cells lines were thawed and were cultured in Dulbecco's modified Eagle's medium (DMEM, Gibcon, USA) supplemented with 10% fetal bovine serum (FBS, Gibco, Germany) and 1% penicillin-streptomycin (PS, Gibco, USA) at 37° C. in a humidified atmosphere with 5% CO2 until a sufficient number of cells were culture in T75 culture bottles. After reaching a confluence of 80% to 90%, the cells were separated using trypsin and counted. Next 100.000 cells were planted in each well of a 6 well plate in replicates, washed and the DMEM solution with 150 μg and 250 μg/ml substance/DMEM and DMEM with no substance as control was added.
# (§4) After 48 h and after 72 h 100 μl supernatant of each well was taken, labelled and frozen at −20° degree Celsius. Prior to perform ELISA the medium was depending on the cell line diluted 1:50 or 1:100 with PBS, otherwise the concentration of collagen fibers was too high to be measured.
# The media containing the secretion of the different human dermal fibroblasts GM637, UKE1, and HRO159N were collected after 48 h and 72 h treatment. Secretion of pro-collagen 1 was assessed with human pro-collagen I alpha 1 DuoSet ELISA (R&D systems, USA) To prepare the Elisa plate, Human pro-Collagen I α capture antibody was diluted in ELISA plate-coating buffer at 4 μg/mL working concentration. 100 μl of diluted Capture antibody was added to 96-well microplates and incubated over night at room temperature. After three times washing with Wash Buffer, microplates were blocked by adding 300 μl of Reagent Diluent for 1 hour at room temperature. To proceed the ELISA Human pro-collagen I α1 Standards were diluted in Reagent Diluent (range between […]) and 100 μl of standards or conditioned mediums were added to designated wells. Microplates were incubated at room temperature for 2 hours. Human Pro-collagen I α1 Detection Antibody was prepared in Reagent Diluent at […] working concentration and 100 μl of diluted Detection Antibody was applied for 2 hours at room temperature after extensive washing. Then, working solution of Streptavidin-HRP with Reagent Diluent was prepared by diluting 1:40 and added into each well. After 20 minutes at room temperature incubation, microplates were washed and applied with 100 μl of Substrate Solution for 20 minutes followed by Stop Solution after washing. Finally, signals were measured at 450 nm absorbance by PHomo Microplate Reader (Autobio, China) The amount of pro-collagen 1 was quantified by extrapolating the signal into a linear range of a pro-collagen 1 standard curve. Screening compounds were typically tested at concentration of 150 and 250 μg/mL. The dose response data for each compound and the different cell lines were obtained by nonlinear regression analysis using Prism 9 software (GraphPad, La Jolla, USA).
# [2] = test system: human lung fibroblast MRCVI; assay: ELISA of secreted pro-collagen I alpha 1, human lung fibroblast MRCVI; type: cell-based; details: 48 h, 250 μg
# Method: as §1, §2
# As cell line MRCV1 was used, which is an immortalized cell line originated from human lung fibroblast, bought in 2001.
# as §3, with “cell line was” for “cells lines were”, “and” for “and were”
# as §4
# The medium containing the secretion of the human lung fibroblast MRCVI was collected after 48 h and 72 h treatment. Secretion of pro-collagen 1 was assessed with human pro-collagen I alpha 1 DuoSet ELISA (R&D systems, USA) To prepare the Elisa plate, Human pro-Collagen I α capture antibody was diluted in ELISA plate-coating buffer at 4 μg/mL working concentration. 100 μl of diluted Capture antibody was added to 96-well microplates and incubated over night at room temperature. After three times washing with Wash Buffer, microplates were blocked by adding 300 μl of Reagent Diluent for 1 hour at room temperature. To proceed the ELISA Human pro-collagen I α1 Standards were diluted in Reagent Diluent (range between […]) and 100 μl of standards or conditioned mediums were added to designated wells. Microplates were incubated at room temperature for 2 hours. Human Pro-collagen I α1 Detection Antibody was prepared in Reagent Diluent at […] working concentration and 100 μl of diluted Detection Antibody was applied for 2 hours at room temperature after extensive washing. Then, working solution of Streptavidin-HRP with Reagent Diluent was prepared by diluting 1:40 and added into each well. After 20 minutes at room temperature incubation, microplates were washed and applied with 100 μl of Substrate Solution for 20 minutes followed by Stop Solution after washing. Finally, signals were measured at 450 nm absorbance by PHomo Microplate Reader (Autobio, China) The amount of pro-collagen 1 was quantified by extrapolating the signal into a linear range of a pro-collagen 1 standard curve. Screening compounds were typically tested at concentration of 150 and 250 μg/mL. The dose response data for each compound and the different cell lines were obtained by nonlinear regression analysis using Prism 9 software (GraphPad, La Jolla, USA).
SMILES,collagen reduction percentage in comparison to the standard (100%) [1],collagen reduction percentage in comparison to the standard (100%) [2]
"c1ccc2c(c1)cnn1nnnc21 [Compound 1, Tetrazolo[5,1-a]phthalazine]",57%,78%
"Cc1nnc2c3ccc(C(F)(F)F)cc3cnn12 [Compound 36, 3-Methyl-8-(trifluoromethyl)-[1,2,4]triazolo[3,4-a]phthalazine]",,68%
"c1nn2nnnc2c2cscc12 [Compound 17, Tetrazolo[1,5-b]thieno[3,4-d]pyridazine]",34%,16%
"c1ccc2c(c1)cnn1cnnc21 [Compound 10, 1,2,4-Triazolo[3,4-a]phthalazine]",,52%
"CC(C)Oc1nn2nnnc2c2c(Cl)cccc12 [Compound 44, 10-chloro-6-isopropoxytetrazolo[5,1-a]phthalazine]",72%,
"COc1nn2c(C)nnc2c2ccccc12 [Compound 3, 6-Methoxy-3-methyl-1,2,4-triazolo[3,4-a]phthalazine]",82%,11%
"Cc1nnc2c3cscc3cnn12 [Compound 16, 3-Methylthieno[3,4-d][1,2,4]triazolo[4,3-b]pyridazine]",79%,43%
"[2H]C([2H])([2H])c1nnc2c3ccccc3cnn12 [Compound 7, 3-D3-Methyl-1,2,4-triazolo[3,4-a]phthalazine]",43%,9%
